Assays:
[1] = test system: cancer cells derived from the tissue sample of a patient with osteosarcoma; experiment: Drug response score assay on tissue sample, Example 10; type: cell-based, human; set-up: key to Drug response score, conc. 1 / Drug response score, conc. 2 / Drug response score, conc. 3 / Drug response score, conc. 4: normalized drug response metric per Gupta et al. 2020; conditions: for effectiveness on the cancer cells derived from the tissue sample under laboratory conditions / Drug sensitivity as calculated by the assay (interpretation of Drug Response Scores): osteosarcoma tissue sample; for Drug sensitivity as calculated by the assay (interpretation of Drug Response Scores): Table 33; for Drug response score, conc. 1 / Drug response score, conc. 2 / Drug response score, conc. 3 / Drug response score, conc. 4: tissue sample; for Drug response score, conc. 1: conc. 1 per Table 31: Etop 1, DTIC 1.5, Ifos 0.125, Doce 0.02, Irinotecan 5 μg/ml; for Drug response score, conc. 2: conc. 2 per Table 31: Etop 4, DTIC 3, Ifos 0.25, Doce 0.2, Irinotecan 10 μg/ml; for Drug response score, conc. 3: conc. 3 per Table 31: Etop 20, DTIC 6, Ifos 5, Doce 2, Irinotecan 25 μg/ml; for Drug response score, conc. 4: conc. 4 per Table 31: Etop 100, DTIC 12, Ifos 10, Doce 10, Irinotecan 50 μg/ml
Procedure: (§1) Where a tissue sample was provided by each subject, cancer stem cells (CSCs, CD133^+), were isolated from said sample. Tumour marker cells were further isolated from each tissue sample. The remaining cells were designated tumour marker^+ cells.
(§2) First, disaggregation of the tissue samples was carried out. Disaggregation was dependent on the size of the tissue sample and the method of retrieval: • EBUS (Endobronchial Ultrasound Scan and Biopsy)—very small fragments of tissue in solution-spun at 1200 rpm for 5 minutes to collect tissue pellet • Bronchoscopy-larger fragments with larger amount of blood vessels • Broncho-lavage-similar to EBUS, spun at 1200 rpm for 5 minutes to collet tissue pellet
(§3) Once a pellet of tissue obtained, DMEM added to the tissue pellet and the material forced through a […] Smart strainer. Once a cell suspension was achieved, this was spun at 1200 rpm for 5 minutes and the supernatant removed. The cells were then resuspended to a volume of 60 μl.
(§4) 20 μl of FcR block and 20 μl of CD133 microbeads were added to the resuspended cells, followed by incubation for 15 minutes at 4° C. The cells were then processed using an AutoMACS machine. This separates the […] into CD133^+ and CD133^− cells in 2 separate falcons. The falcon tubes are then centrifuged at 1200 rpm for 5 minutes.
(§5) The supernatant was removed from the CD133+falcon tube, and the cells resuspended in DMEM with 2 μl Cell Tox, 2 μl MT and 2 μl MT. 20 μl of the resuspended […] was then plated in each well which will contain an immunotherapy treatment.
(§6) The supernatant was removed from the CD133^− falcon tube, and the CD133^− cells contacted with 40 μl of a tumour separation microbeads cocktail containing microbeads bound to anti-CD31, anti-CD45, anti-Glycophorin-A (Gly-A) and an anti-fibroblast antibody.
(§7) This cocktail is used to separate out tumour marker cells using MACS, by separating out CD31^+, CD45^+ and Gly-A^+ cells. In addition, anti-fibroblast antibody-labelled beads are also used. The cocktail is added to the CD133^− falcon tube, followed by incubation for 15 minutes at 4° C. MACS is carried out using an AutoMACS machine. This cells which are not bound by the CD31, CD45, Gly-A and anti-fibroblast antibody beads are the tumour marker^+ cells.
(§8) The different cell types were each divided equally into populations, depending on the number of drugs/concentrations to be tested and plated on a cell-culture plate pre-coated with a scaffold of polycaprolactone (PCL) electrospun fibres and incubated at 37° C., 5% CO2, for 5 to (typically 10) minutes to facilitate cell attachment. After attachment, an initial imaging step was carried out using the RealTime-Glo™ MT assay from Promega (Catalogue No. G9711)) and the CellTox™ Green Cytotoxicity Assay (Promega, Catalogue No. G8741), carried out according to manufacturer's instructions. Following this initial imagining, the immunotherapeutic and/or chemotherapeutic agents were added to the cell populations as indicated below. After 10 minutes, the imagining step was repeated. The cell populations were then incubated at 37° C., 5% CO2 for 48 hours. The imaging step was then repeated. The cell populations were then re-dosed with the same immunotherapeutic and/or chemotherapeutic agents as indicated below, and incubated at 37° C., 5% CO2 for a further 48 hours. After this second 48 hour incubation, the imagining step was repeated for a final time.
(§9) At the end of this culture period, dose response scores were calculated using a normalized drug response metric as described in Gupta et al. (Communications Biology volume 3, Article number: 42 (2020), https://doi.org/10.1038/s42003-020-0765-z). The start readout for a given immunotherapeutic or chemotherapeutic agent at a given concentration was the to readout for said immunotherapeutic or chemotherapeutic agent at a specified concentration. […]

[2] = test system: Cancer Cells from tissue sample (CSCs, tumour marker+ cells) of a patient with GI cancer (Cholangio Carcinoma, stage 4); experiment: Drug response score assay on tissue sample, Example 9; type: cell-based, human; conditions: for effectiveness on Cancer Cells from tissue sample under laboratory conditions: GI cancer (Cholangio Carcinoma) tissue sample; for Drug sensitivity as calculated by the assay, Tissue: interpretation based on Drug Response Scores; for Drug sensitivity as calculated by the assay, Tissue / Drug response score, conc. 1 / Drug response score, conc. 2 / Drug response score, conc. 3 / Drug response score, conc. 4: tissue sample; for Drug response score, conc. 1: conc. 1 per Table 27B: Pem 20, Niv 20, Atez 100, Pacli 0.05, Irino 5, Beva 1 μg/ml, Len 50, 5-FU 250 ng/ml; for Drug response score, conc. 2: conc. 2 per Table 27B: Pem 40, Niv 40, Atez 200, Pacli 0.1, Irino 10, Beva 2 μg/ml, Len 100, 5-FU 500 ng/ml; for Drug response score, conc. 3: conc. 3 per Table 27B: Pem 100, Niv 80, Atez 400, Pacli 0.2, Irino 25, Beva 4 μg/ml, Len 200, 5-FU 1000 ng/ml; for Drug response score, conc. 4: conc. 4 per Table 27B: Pem 160, Niv 160, Atez 800, Pacli 1, Irino 50, Beva 8 μg/ml, Len 400, 5-FU 2000 ng/ml
Procedure: as §1, §2, §3, §4, §5, §6, §7, §8, §9

Compound | effectiveness on the cancer cells derived from the tissue sample under laboratory conditions [1] | Drug sensitivity as calculated by the assay (interpretation of Drug Response Scores) [1] | Drug response score, conc. 1 [1] | Drug response score, conc. 2 [1] | Drug response score, conc. 3 [1] | Drug response score, conc. 4 [1] | effectiveness on Cancer Cells from tissue sample under laboratory conditions [2] | Drug sensitivity as calculated by the assay, Tissue [2] | Drug response score, conc. 1 [2] | Drug response score, conc. 2 [2] | Drug response score, conc. 3 [2] | Drug response score, conc. 4 [2]
CC(=O)O[C@@]12CO[C@@H]1C[C@H](O)[C@@]1(C)C(=O)[C@H](O)C3=C(C)[C@@H](OC(=O)[C@H](O)[C@@H](NC(=O)OC(C)(C)C)c4ccccc4)C[C@@](O)([C@@H](OC(=O)c4ccccc4)[C@H]21)C3(C)C [Docetaxel] | resistant | Resistant | −0.5113 | 1.0268 | 0.6693 | −0.6056 |  |  |  |  |  | 
COc1cc([C@@H]2c3cc4c(cc3[C@@H](O[C@@H]3O[C@@H]5CO[C@@H](C)O[C@H]5[C@H](O)[C@H]3O)[C@H]3COC(=O)[C@H]23)OCO4)cc(OC)c1O [Etoposide] | show effectiveness | Sensitive (S+) | 0.4829 | 0.0653 | −0.4472 | 0.0955 |  |  |  |  |  | 
O=P1(NCCCl)OCCCN1CCCl (stereo not shown) [Ifosfamide] | show effectiveness | Sensitive (S+) | 0.3183 | 0.8776 | 0.1237 | −0.8671 |  |  |  |  |  | 
COc1cc2nccc(Oc3ccc(NC(=O)NC4CC4)c(Cl)c3)c2cc1C(N)=O [Lenvatinib] |  |  |  |  |  |  | S+ | S+ | 0.9082 | 0.9132 | 0.8739 | 0.9434
CC(=O)O[C@H]1C(=O)[C@@]2(C)[C@H]([C@H](OC(=O)c3ccccc3)[C@]3(O)C[C@H](OC(=O)[C@H](O)[C@@H](NC(=O)c4ccccc4)c4ccccc4)C(C)=C1C3(C)C)[C@]1(OC(C)=O)CO[C@@H]1C[C@@H]2O [Paclitaxel] |  |  |  |  |  |  |  |  | 0.9365 | 0.9526 | 0.9072 | 0.9683
Nivolumab |  |  |  |  |  |  | S+ | S+ | 0.9424 | 0.9636 | 0.9018 | 0.6833
Pembrolizumab |  |  |  |  |  |  | S+ | S+ | 0.9764 | 0.9717 | 0.9672 | 0.8354
